Results published in patent publication US20180117150A1, “Combination Therapies for CD38-Positive Hematological Malignances with ANTI-CD38 Antibodies and Cyclophosphamide” (Janssen Biotech, Inc., priority 2016, published 2018).
Read-outs that look alike come from different tables or passages of the source.

Experiments:
MM1S cells [1] = assay: Daratumumab-mediated MM1S tumor cell clearance in co-culture with conditioned THP-1 macrophages (ADCP assay); type: cell-based; conditions: for daratumumab-mediated tumor cell killing by macrophages (% specific MM1S cell clearance): THP-1 conditioned 48 hours with media of treated MM1S, 1 μg/ml daratumumab, E:T 2:1, 18 hours, FIG. 4
Description: FIG. 4 illustrates the level of MM1S tumor cell clearance in co-culture of MM1S cells and THP-1 macrophages. Prior to initiation of co-cultures, THP-1 cells were cultured 48 hours in conditioned media generated from untreated MM1S tumor cells or MM1S cells treated with lenalidomide (FIG. 4A), bortezomib (FIG. 4B) or cyclophosphamide (CTX) alone or in combination with bortezomib or lenalidomide (FIG. 4C). MM1S cells were stained with calcein and incubated with daratumumab or IgG1 isotype control ([…]) and co-culture with THP-1 cells at a 2:1 effector to target ratio for 18 hours. Cell frequency was determined using the Accuri C6 (Right). The % specific cell clearance was calculated by the following formula:
100−100*(The frequency of calcein stained MM1S cells in the presence of 1 μg/ml daratumumab/
The frequency of calcein stained MM1S cells in the presence of Isotype control).
Co-cultures of MM1S and THP-1 cells were incubated in the presence of cytochalasin to assess if daratumumab mediated MM1S killing by ADCP. […] FIG. 5 illustrates the level of daratumumab-mediated tumor cell clearance in co-cultures of MM1S and THP-1 cells. Prior to initiation of co-cultures, THP-1 cells were cultured 48 hours in conditioned media generated from untreated MM1S tumor cells or MM1S cells treated with lenalidomide (FIG. 5A) or cyclophosphamide alone or in combination with lenalidomide or bortezomib (FIG. 5B) in the absence or presence of 1 μg/ml cytochalasin D. The % specific cell clearance was calculated by the following formula: […]

[2] = test system: CD47 on CD45-CD19-CD138+ plasma cells; conditions: 24 hour treatment vs baseline
Description: Ethics: Pre-screened newly diagnosed MM patients were enrolled into the sub-clinical study by informed consent according to predetermined protocols and standard operating procedures for sample draw and included extraction of relevant details from medical records.
Samples Isolation: Isolation of mononuclear cells (MC) from PB and BM aspirates were performed by layering 3mL EDTA-anti-coagulated sample over 3mL endotoxin-free Ficoll Plaque density-gradient medium (GE Healthcare, Little Chalfont, United Kingdom) in 15-mL Falcon tubes (Sarstedt, North Rhine-Westphalia, Niimbrecht, Germany), and centrifuged at 420 relative centrifugal force (RCF) for 22 minutes at 4° C. without braking. The “buffy coat” layer was isolated and washed twice with Fluorescence-activated cell sorting (FACS buffer) [2% foetal calf serum (Lonza, Basel, Switzerland), PBS and 0.05% NaN3 (Sigma-Aldrich, St. Louis, Mo., USA)]. […] Cells were counted using a haemocytometer and 5×10^5 cells per sample were stained for phenotypic characterisation by flow cytometry
Characterisation Studies: Plasma cells: Cell surface expression of CD38, CD47, CD319 (SLAMF7), B-cell maturation antigen (BCMA), MIC A/B, Programmed death-ligand (PDL) 1, PDL2, CD54, CD11a and CD48 were analysed on CD45-CD19-CD138+ Plasma cells by flow cytometry. […]

[3] = test system: CD32 (FcγRIIa/b) expression on THP-1 macrophages; assay: CD32 (FcγRIIa/b) expression on THP-1 macrophages incubated in conditioned media from treated MM1S cells; conditions: THP-1 cells, 48 hours in conditioned media from treated MM1S cells; FIG. 3B
Description: (§1) Cells: The multiple myeloma cell line, MM1S, was sub-cultured in RPMI 1640 media supplemented with 10% FBS and 50 IU/ml penicillin and 50 μg/ml Streptomycin. […] THP-1 cells were sub-cultured in RPMI 1640 media supplemented with 10% FBS and 50 IU/ml Penicillin and 50 μg/ml streptomycin. Cells were plated at a cell density of 2×10^5 cells/ml for experiments. […] Fresh media was added and the cells were further incubated for 24 hours after collecting the conditioned media. […] All antibodies were purchased from BD Pharmingen™ unless otherwise stated. Cells were stained with anti-CD38 (APC-conjugated) and anti-CD47 (FITC-conjugated, eBiosciences) antibodies and the level of expression of CD38 and CD47 was assessed. Sytox advanced reagents were used to assess cell death. Cells were analysed by flow cytometry. Sytox positive cells were excluded from analysis. The mean fluorescent intensity was calculated by expressing the fluorescent intensity of each sample relative to the cell size. […] FcγRI and FcγRlla/b expression was assessed by flow cytometry 48 hours later using anti-FcγRI (APC-conjugated) and anti- FcγRIIa/b (PE-conjugated) antibodies. The mean fluorescent intensity was calculated by expressing the fluorescent intensity of each sample relative to the cell size and subtracting the values for the isotype control/unstained samples.

[4] = test system: CD38 expression on multiple myeloma cells (MM1S); assay: Flow cytometry of cell surface CD38 expression on treated MM1S cells; conditions: 48 hours after treatment, CTX 2.5, 5, 10 μM, CTX 10 μM with Bort 1 nM or Len 1 μM, FIG. 1
Description: as §1

MM1S cells [5] = type: cell-based, human; conditions: for proportion of tumour cell clearance accounted for by ADCP: ± 1 μg/ml cytochalasin D, n=1
Description: Antibody Dependant cellular phagocytosis (ADCP): To determine the number of macrophages per sample, 50 μl of 5×10^6 cells/mL concentration of MC isolated from PB and BM were diluted using 150 μl FACS buffer. Based on forward and side scatter profiles, the total number of macrophages were determined by timed acquisition events per unit volume using an Accuri™ C6. […] Cells were washed, incubated with mouse anti-human CD45-APC (BD Biosciences, San Jose, CA) and mouse anti-human CD14-PerCP-Cy5.5 (Miltenyi Biotech, Cologne, Germany) for 15 mins, then washed and re-suspended in 200 μl FACS buffer for sample acquisition. Macrophage and MM1S cells were gated using CFSE+ and CD45+CD14+ cells gating. Cell frequency was determined using the BD Canto IITM flow cytometer. Antibody-dependent phagocytosis was assessed and quanti?ed as follows: Phagocytosis was quanti?ed by frequency of remaining target cells (CFSE positive) with and without Ab treatment or isotype control. […] ADCP mediated clearance was calculated using the following formula: 100-100*(Proportion of live Dara-treated MM1S cells in untreated macrophage co-culture/ Proportion of live Dara-treated MM1S cells in CytoD conditioned macrophage co-culture).

[6] = test system: CD64 (FcγRI) expression on THP-1 macrophages; assay: CD64 (FcγRI) expression on THP-1 macrophages incubated in conditioned media from treated MM1S cells; conditions: THP-1 cells, 48 hours in conditioned media from treated MM1S cells; FIG. 3A
Description: as §1

[7] = test system: CD47 expression on multiple myeloma cells (MM1S); assay: Flow cytometry of cell surface CD47 expression on treated MM1S cells; conditions: 24 hours after treatment, CTX 2.5, 5, 10 μM, CTX 10 μM with Bort 1 nM or Len 1 μM, FIG. 2C
Description: as §1

C=C1[C@@H](C)[C@H]2[C@H](Cc3ccccc3)NC(=O)[C@]23[C@H](OC(C)=O)/C=C/[C@@](C)(O)C(=O)[C@@H](C)C/C=C/[C@H]3[C@@H]1O [Cytochalasin D]
daratumumab-mediated tumor cell clearance in the presence of cytochalasin D (MM1S cells [1]; 1 μg/ml cytochalasin D in MM1S/THP-1 co-cultures, FIG. 5): reduced

CC(C)C[C@H](NC(=O)[C@H](Cc1ccccc1)NC(=O)c1cnccn1)B(O)O [bortezomib]
daratumumab-mediated tumor cell killing by macrophages (% specific MM1S cell clearance) (MM1S cells [1]): potentiated

O=P1(N(CCCl)CCCl)NCCCO1 (centres unmarked) [cyclophosphamide]
CD47 surface expression (MFI) on plasma cells, bone marrow ([2]; BM, n=3, P=0.0555, FIG. 6B): decreased
CD47 surface expression (MFI) on plasma cells, peripheral blood ([2]; PB, n=3, cyclophosphamide 150-300 mg/m^2, FIG. 6A): decreased
daratumumab-mediated tumor cell killing by macrophages (% specific MM1S cell clearance) (MM1S cells [1]): potentiated
daratumumab-mediated tumor cell killing by macrophages (% specific MM1S cell clearance) (MM1S cells [1]; listed as Cyclophosphamide): augmented
mechanism of the potentiation of anti-myeloma activity of daratumumab (MM1S cells [1]; concluded from cytochalasin D inhibition, FIG. 5): dependent on macrophage mediated ADCP
MFI of cell surface CD32 (FcγRIIa/b) expression [3]: induced
mean fluorescence intensity (MFI) of cell surface CD38 expression [4]: induced
proportion of tumour cell clearance accounted for by ADCP (MM1S cells [5]; BM macrophages 24 hours after treatment with cyclophosphamide, FIG. 8C): > 25%
tumour cytotoxicity by macrophages in co-culture of PB or BM-derived macrophages and multiple myeloma cells (MM1S cells [5]; patient macrophages 24 hours after treatment vs prior to treatment): augmented
MFI of cell surface CD64 (FcγRI) expression [6]: induced
mean fluorescence intensity (MFI) of cell surface CD47 expression [7]: reduced

Nc1cccc2c1CN(C1CCC(=O)NC1=O)C2=O (centres unmarked) [lenalidomide]
daratumumab-mediated tumor cell killing by macrophages (% specific MM1S cell clearance) (MM1S cells [1]): potentiated
daratumumab-mediated tumor cell killing by macrophages (% specific MM1S cell clearance) (MM1S cells [1]; listed as lenalodomide): augmented

daratumumab
proportion of tumour cell clearance accounted for by ADCP (MM1S cells [5]; BM macrophages prior to treatment, FIG. 8C): > 15%
difference between Dara and Isotype within the ADCP assay (MM1S cells [5]; patient had received Daratumumab 16 mg/kg infusion, FIG. 8C): minimal difference
